In US8501787B2, “Compounds for the inhibition of angiogenesis and use thereof” (Shire Orphan Therapies GmbH, priority 2004, dated 2013) one finds IC50 data, which are given here for 13 compounds.

The target of this assay is T1, integrin alpha5beta1 (Homo sapiens, UniProt P05556+P08648).
T1 construct: The integrin alpha5beta1 extracellular domain Fc-fusion was expressed and purified; made in house
Nature of the assay: Alpha5beta1-Fibronectin binding assay (competitive ELISA). As to conditions: for pIC50: method of section 1.1, read-out: Group (binding activities to integrin alpha5beta1); for IC50: inhibition of integrin binding to fibronectin, read-out: IC50 alpha5beta1 in nM. Here is the method: The optimal concentrations of integrin and ligand were selected from ELISA binding studies with variable concentrations of both to obtain optimal signal noise ratio for further studies. IC50 studies were performed with fixed concentration of ligand and integrin and a serial dilution of inhibitor. The plates were measured with SpectraMax Plus reader (Molecular Devices). The resulting inhibition curves were analyzed using SoftMaxPro 4.0 software, the turning point describes the IC50 value.
Fibronectin and Vitronectin were purchased from Sigma, fibrinogen from Calbiochem. (EMD Biosciences, Darmstadt, Germany) The integrin alpha5beta1 extracellular domain Fc-fusion was expressed and purified as described in (Coe, 2001, JBC, 276, 35854). Integrins alphavbeta3 and alphavbeta5 were purchased from Chemicon (Chemicon Europe, Germany) and alphaIIbbeta3 form Kordia (Kordia Life Science, Leiden, Netherlands)
Fibronectin was diluted with coating buffer (15 mM Na2CO3, 35 mM NaHCO3, pH9.6) and coated with 100 μL/well to Nunc-Immuno maxisorp plates (Nalge Nunc Europe Ltd) over night at 4° C. After discarding the coating solution plates were washed 3 times with buffer 1 ([…], pH7.6, 150 mM NaCl, 1 mM […], 1 mg/mL BSA) and blocked with 100 μL blocking buffer (3% BSA in PBS 0.1% Tween20) for 1 hour at room temperature. After washing the blocked plates (3 times) with buffer 1, integrin (50 μL) and either inhibitor (serial dilution in buffer 1) or buffer 1 (50 μL) were added to the wells and incubated for one hour at RT. Plates were then washed (3 times) with buffer 1 and incubated with 100 μL of anti-human-Fc-HRP antibody conjugate (Sigma-Aldrich, Taufkirchen, Germany) in buffer 1 for 1 hour at RT. After additional washing steps (3 times) with buffer 1 50 μL of HRP substrate solution TMB (Seramun, Germany) were added to the wells. Colour development was stopped after 3-5 minutes with 50 μL 1M H2SO4. The developed colour was measured at 450 nm and analyzed as described above.
In general terms: In an ELISA, binding on a coated surface is turned into a signal by an enzyme label.

Molecules are shown by their SMILES. pIC50: −log10 of the molar value. Like-named read-outs stand apart in the source and are kept apart here.

On to `Cc1cc(C)c(S(=O)(=O)N[C@@H](CNC(=O)CO[C@@H]2C[C@@H](CNc3ncccn3)N(C(=O)OCc3ccccc3)C2)C(=O)O)c(C)c1` [Compound 130, 4-{[2-Carboxy-2-(2,4,6-trimethyl-benzenesulfonylamino)-ethylcarbamoyl]-methoxy}-2-(pyrimidin-2-ylaminomethyl)-pyrrolidine-1-carboxylic acid benzyl ester], for which the pIC50 is below 6.30. What is called IC50 is the concentration needed to halve the response being measured. In the case of `Cc1cc(C)c(S(=O)(=O)N[C@@H](CNC(=O)CO[C@@H]2C[C@@H](CNc3ccccn3)N(C(=O)NC3CCCC3)C2)C(=O)O)c(C)c1` [Compound 20, 3-{2-[1-Cyclopentylcarbamoyl-5-(pyridin-2-ylaminomethyl)-pyrrolidin-3-yloxy]-acetylamino}-2-(2,4,6-trimethyl-benzenesulfonylamino)-propionic acid], the half-inhibitory concentration (IC50) came to 6.6 nM and the pIC50 is above 8.00. As to `O=C(CO[C@@H]1C[C@@H](CNc2ccccn2)N(C(=O)OCc2ccccc2)C1)NC[C@H](NC(=O)C1(c2ccccc2)CC1)C(=O)O` [Compound 106, 4-({2-Carboxy-2-[(1-phenyl-cyclopropanecarbonyl)-amino]-ethylcarbamoyl}-methoxy)-2-(pyridin-2-ylaminomethyl)-pyrrolidine-1-carboxylic acid benzyl ester], the pIC50 is 6.30 to 8.00.

Consider `Cc1cc(C)c(S(=O)(=O)N[C@@H](CNC(=O)CO[C@@H]2C[C@@H](CNc3ccccn3)N(S(=O)(=O)Cc3ccccc3)C2)C(=O)O)c(C)c1` [Compound 15, 3-{2-[1-Phenylmethanesulfonyl-5-(pyridin-2-ylaminomethyl)-pyrrolidin-3-yloxy]-acetylamino}-2-(2,4,6-trimethyl-benzenesulfonylamino)-propionic acid], for which the IC50 came to 11.3 nM and the pIC50 is 6.30 to 8.00. For `Cc1cc(C)c(CNC(CNC(=O)COC2CC(CNc3ccccn3)N(C(=O)OCc3ccccc3)C2)C(=O)O)c(C)c1` (centres unmarked) [Compound 82, 4-{[2-Carboxy-2-(2,4,6-trimethyl-benzylamino)-ethylcarbamoyl]-methoxy}-2-(pyridin-2-ylaminomethyl)-pyrrolidine-1-carboxylic acid benzyl ester], the pIC50 was below 6.30.

`Cc1cc(C)c(S(=O)(=O)N[C@@H](CNC(=O)CO[C@@H]2C[C@@H](CNc3ccccn3)N(CCCc3ccccc3)C2)C(=O)O)c(C)c1` [Compound 18, 3-{2-[1-(3-Phenyl-propyl)-5-(pyridin-2-ylaminomethyl)-pyrrolidin-3-yloxy]-acetylamino}-2-(2,4,6-trimethyl-benzenesulfonylamino)-propionic acid]: the pIC50 was 6.30 to 8.00. For `CCC(=O)N1C[C@H](OCC(=O)NC[C@H](NS(=O)(=O)c2c(C)cc(C)cc2C)C(=O)O)C[C@H]1CNc1ccccn1` [Compound 38, 3-{2-[1-Propionyl-5-(pyridin-2-ylaminomethyl)-pyrrolidin-3-yloxy]-acetylamino}-2-(2,4,6-trimethyl-benzenesulfonylamino)-propionic acid], the IC50 is 11.9 nM and the pIC50 was 6.30 to 8.00.

As to `CC(C)c1cc(C(C)C)c(C(=O)N[C@@H](CNC(=O)CO[C@@H]2C[C@@H](CNc3ccccn3)N(C(=O)OCc3ccccc3)C2)C(=O)O)c(C(C)C)c1` [Compound 126, 4-{[2-Carboxy-2-(2,4,6-triisopropyl-benzoylamino)-ethylcarbamoyl]-methoxy}-2-(pyridin-2-ylaminomethyl)-pyrrolidine-1-carboxylic acid benzyl ester], the pIC50 was below 6.30. Take `Cc1cc(C)c(S(=O)(=O)N[C@@H](CNC(=O)CO[C@@H]2C[C@@H](CNc3ccccn3)N(C(=S)Nc3ccc(-c4c5ccc(=O)cc-5oc5cc(O)ccc45)c(C(=O)O)c3)C2)C(=O)O)c(C)c1` [Compound 61, 5-{[4-{[2-Carboxy-2-(2,4,6-trimethyl-benzenesulfonylamino)-ethylcarbamoyl]-methoxy}-2-(pyridin-2-ylaminomethyl)-pyrrolidine-1-carbothioyl]-amino}-2-(6-hydroxy-3-oxo-3H-xanthen-9-yl)-benzoic acid]: the pIC50 was 6.30 to 8.00. The same measure, in the same setting: for `O=C(CO[C@@H]1C[C@@H](CNc2ccccn2)N(C(=O)OCc2ccccc2)C1)NC[C@H](NC(=O)CCc1ccccc1)C(=O)O` [Compound 74, 4-{[2-Carboxy-2-(3-phenyl-propionylamino)-ethylcarbamoyl]-methoxy}-2-(pyridin-2-ylaminomethyl)-pyrrolidine-1-carboxylic acid benzyl ester] the value was 6.30 to 8.00; for `Cc1cc(C)c(S(=O)(=O)N[C@@H](CNC(=O)CO[C@@H]2C[C@@H](CNc3ccccn3)N(C(=O)CC3CCCC3)C2)C(=O)O)c(C)c1` [Compound 35, 3-{2-[1-(2-Cyclopentyl-acetyl)-5-(pyridin-2-ylaminomethyl)-pyrrolidin-3-yloxy]-acetylamino}-2-(2,4,6-trimethyl-benzenesulfonylamino)-propionic acid], 6.30 to 8.00; for `O=C(CO[C@@H]1C[C@@H](CNc2ccccn2)N(C(=O)OCc2ccccc2)C1)NC[C@H](NC(=O)c1ccccc1[N+](=O)[O-])C(=O)O` [Compound 96, 4-{[2-Carboxy-2-(2-nitro-benzoylamino)-ethylcarbamoyl]-methoxy}-2-(pyridin-2-ylaminomethyl)-pyrrolidine-1-carboxylic acid benzyl ester], above 8.00. Regarding `C#CCOC(=O)N1C[C@H](OCC(=O)NC[C@H](NS(=O)(=O)c2c(C)cc(C)cc2C)C(=O)O)C[C@H]1CNc1ccccn1` [Compound 44, 4-{[2-Carboxy-2-(2,4,6-trimethyl-benzenesulfonylamino)-ethylcarbamoyl]-methoxy}-2-(pyridin-2-ylaminomethyl)-pyrrolidine-1-carboxylic acid prop-2-ynyl ester], the IC50 worked out at 5.8 nM and the pIC50 was above 8.00.
